# Measured values reported in paper PMC5175396, “Cytotoxicity of Plumbagin, Rapanone and 12 other naturally occurring Quinones from Kenyan Flora towards human carcinoma cells” (BMC Pharmacology & Toxicology, 2016).
# Tested on: A549 human non-small cell lung cancer (NSCLC) cell line
# Test: Neutral red (NR) uptake cytotoxicity assay, A549
# Type: cell-based
# Conditions: Homo sapiens, A549, 72 h, neutral red assay, 72 h incubation
# Source text: (§1) Six human cancer cell lines and one normal cell line were used in this study. They included A549 human non-small cell lung cancer (NSCLC) cell line, obtained from the Institute for Fermentation, Osaka (IFO, Japan) and provided by Prof. Dr. Tansu Koparal (Anadolu University, Eskisehir, Turkey), SPC212 human mesothelioma cell line obtained from American Type Culture Collection (ATCC) and provided by Dr. Asuman Demiroğlu Zergeroğlu (Gebze Technical University, Kocaeli, Turkey), DLD-1 colorectal adenocarcinoma cell lines obtained from ATCC (CCL-221), Caco2 colorectal adenocarcinoma cells (ATCC, HTB-37) obtained from the ŞAP Institute of Turkey (Ankara), HepG2 hepatocarcinoma cells (ATCC, HB-8065) and MCF-7 breast adenocarcinoma cells (ATCC, HTB-22) were provided by Prof. Dr. Tansu Koparal (Anadolu University, Eskisehir, Turkey). The normal CRL2120 human skin fibroblasts were obtained from ATCC [CCD1094Sk (ATCC, CRL-2120)]. The cells were maintained as a monolayer in DMEM medium (Sigma-aldrich, Munich, Germany) medium supplemented with 10% fetal calf serum and 1% penicillin (100 U/mL)-streptomycin (100 μg/mL) in a humidified 5% CO2 atmosphere at 37 °C.
# (§2) The cytotoxicity of samples was performed by NR uptake assay as previously described. This method is based on the ability of viable cells to incorporate and bind the supravital dye NR in the lysosomes. […] Briefly, cells were detached by treatment with 0.25% trypsin/EDTA (Invitrogen) and an aliquot of 1 × 10^4 cells was placed in each well of a 96-well cell culture plate (Thermo Scientific, Germany) in a total volume of 200 μL. The cells were allowed to attach overnight and subsequently treated with different concentrations of the 14 compounds. Each of the studied samples was immediately added in varying concentrations in additional 100 μL of culture medium to obtain a total volume of 200 μL/well. After 72 h incubation in humidified 5% CO2 atmosphere at 37 °C, the medium was removed and 200 μL fresh medium containing 50 μg/mL NR was added to each well and incubation continued for an additional 3 h at 37 °C in 5% CO2 atmosphere. The dye medium was then removed and each well was then washed rapidly with 200 μL phosphate buffer saline (PBS) followed by addition of 200 μL of acetic acid-water-ethanol in water (1:49:50). The plates were kept for 15 min at room temperature to extract the dye and then shaken for a few minutes on a GFL 3012 shaker (Gesellschaft für Labortechnik mbH, Burgwedel, Germany). Absorbance was measured on ELx 808 Ultra Microplate Reader (Biotek) equipped with a 540 nm filter. Each assay was done at least three times, with three replicates each. The viability was evaluated based on a comparison with untreated cells. The IC50 values represent the sample’s concentrations required to inhibit 50% of cell proliferation and were calculated from a calibration curve by linear regression using Microsoft Excel.
row,SMILES,IC50 [µM]
1,"CCCC1=C(O)C(=O)C=C(O)C1=O [Compound 6, 2,5-dihydroxy-3-propyl-2,5-cyclohexadiene-1,4-dione]",> 222
2,"CCCCCCCC1=C(O)C(=O)C=C(O)C1=O [Compound 8, 2,5-dihydroxy-3-heptyl-2,5-cyclohexadiene-1,4-dione]",108 ± 17.9
3,"COC1=CC(=O)C(O)=C(CCCCCCCC=CCCCCCCCC2=C(O)C(=O)C(C)=C(O)C2=O)C1=O [Compound 14, ardisiaquinone B]",21.7 ± 1.5
4,"CCCCCCCCCCCC1=C(O)C(=O)C=C(OC)C1=O [Compound 11, 2-hydroxy-5-methoxy-3-undecyl-1,4-benzoquinone]",50.3 ± 2.6

# Same assay, conditions: IC50 in CRL2120 normal fibroblasts divided by IC50 in A549
row,SMILES,selectivity index A549
1,"COC1=CC(=O)C(O)=C(CCCCCCCC=CCCCCCCCC2=C(O)C(=O)C(C)=C(O)C2=O)C1=O [Compound 14, ardisiaquinone B]",3.29
2,"CCCCCCCCCCCC1=C(O)C(=O)C=C(OC)C1=O [Compound 11, 2-hydroxy-5-methoxy-3-undecyl-1,4-benzoquinone]",0.88

# Tested on: SPC212 human mesothelioma cell line
# Test: Neutral red (NR) uptake cytotoxicity assay, SPC212
# Type: cell-based
# Conditions: Homo sapiens, 72 h, neutral red assay, 72 h incubation; read-out: IC50 SPC212
# Source text: as §1
# as §2, with “lysosomes. The procedure is cheaper and more sensitive than other cytotoxicity tests.” for “lysosomes.”
row,SMILES,IC50 [µM]
1,"CCCC1=C(O)C(=O)C=C(O)C1=O [Compound 6, 2,5-dihydroxy-3-propyl-2,5-cyclohexadiene-1,4-dione]",> 222
2,"CCCCCCCC1=C(O)C(=O)C=C(O)C1=O [Compound 8, 2,5-dihydroxy-3-heptyl-2,5-cyclohexadiene-1,4-dione]",< 10
3,"COC1=CC(=O)C(O)=C(CCCCCCCC=CCCCCCCCC2=C(O)C(=O)C(C)=C(O)C2=O)C1=O [Compound 14, ardisiaquinone B]",3.14 ± 0.78
4,"CCCCCCCCCCCC1=C(O)C(=O)C=C(OC)C1=O [Compound 11, 2-hydroxy-5-methoxy-3-undecyl-1,4-benzoquinone]",38.3 ± 3.23

# Same assay, conditions: IC50 in CRL2120 normal fibroblasts divided by IC50 in SPC212
row,SMILES,selectivity index SPC212
1,"COC1=CC(=O)C(O)=C(CCCCCCCC=CCCCCCCCC2=C(O)C(=O)C(C)=C(O)C2=O)C1=O [Compound 14, ardisiaquinone B]",22.72
2,"CCCCCCCCCCCC1=C(O)C(=O)C=C(OC)C1=O [Compound 11, 2-hydroxy-5-methoxy-3-undecyl-1,4-benzoquinone]",1.15

# Tested on: DLD-1 colorectal adenocarcinoma cell lines
# Test: Neutral red (NR) uptake cytotoxicity assay, DLD-1
# Type: cell-based, human
# Conditions: Homo sapiens, DLD-1; neutral red assay, 72 h incubation; read-out: IC50 DLD-1
# Source text: as §1
# as §2, with “lysosomes. The procedure is cheaper and more sensitive than other cytotoxicity tests.” for “lysosomes.”
row,SMILES,IC50 [µM]
1,"CCCC1=C(O)C(=O)C=C(O)C1=O [Compound 6, 2,5-dihydroxy-3-propyl-2,5-cyclohexadiene-1,4-dione]",> 222
2,"CCCCCCCC1=C(O)C(=O)C=C(O)C1=O [Compound 8, 2,5-dihydroxy-3-heptyl-2,5-cyclohexadiene-1,4-dione]",> 168
3,"COC1=CC(=O)C(O)=C(CCCCCCCC=CCCCCCCCC2=C(O)C(=O)C(C)=C(O)C2=O)C1=O [Compound 14, ardisiaquinone B]",114 ± 3.68
4,"CCCCCCCCCCCC1=C(O)C(=O)C=C(OC)C1=O [Compound 11, 2-hydroxy-5-methoxy-3-undecyl-1,4-benzoquinone]",45.4 ± 4.89

# Same assay, conditions: IC50 in CRL2120 normal fibroblasts divided by IC50 in DLD-1
row,SMILES,selectivity index DLD-1
1,"COC1=CC(=O)C(O)=C(CCCCCCCC=CCCCCCCCC2=C(O)C(=O)C(C)=C(O)C2=O)C1=O [Compound 14, ardisiaquinone B]",0.62
2,"CCCCCCCCCCCC1=C(O)C(=O)C=C(OC)C1=O [Compound 11, 2-hydroxy-5-methoxy-3-undecyl-1,4-benzoquinone]",0.97

# Tested on: not listed separately
# Test: Neutral red (NR) uptake cytotoxicity assay, Caco-2
# Type: cell-based, human
# Conditions: human; IC50 in CRL2120 normal fibroblasts divided by IC50 in Caco-2; read-out: selectivity index Caco-2 (converted)
# Source text: as §1
# as §2, with “lysosomes. The procedure is cheaper and more sensitive than other cytotoxicity tests.” for “lysosomes.”
row,SMILES,selectivity ratio at 72 h
1,"CCCCCCCC1=C(O)C(=O)C=C(O)C1=O [Compound 8, 2,5-dihydroxy-3-heptyl-2,5-cyclohexadiene-1,4-dione]",2.27
2,"CCCCCCCCCCCC1=C(O)C(=O)C=C(OC)C1=O [Compound 11, 2-hydroxy-5-methoxy-3-undecyl-1,4-benzoquinone]",1.14

# Tested on: Caco2 colorectal adenocarcinoma cells
# Test: Neutral red (NR) uptake cytotoxicity assay, Caco-2
# Type: cell-based, human
# Conditions: Homo sapiens, Caco-2; neutral red assay, 72 h incubation
# Source text: as §1
# as §2, with “lysosomes. The procedure is cheaper and more sensitive than other cytotoxicity tests.” for “lysosomes.”
row,SMILES,IC50 [µM]
1,"CCCC1=C(O)C(=O)C=C(O)C1=O [Compound 6, 2,5-dihydroxy-3-propyl-2,5-cyclohexadiene-1,4-dione]",> 222
2,"CCCCCCCC1=C(O)C(=O)C=C(O)C1=O [Compound 8, 2,5-dihydroxy-3-heptyl-2,5-cyclohexadiene-1,4-dione]",63.9 ± 5.97
3,"COC1=CC(=O)C(O)=C(CCCCCCCC=CCCCCCCCC2=C(O)C(=O)C(C)=C(O)C2=O)C1=O [Compound 14, ardisiaquinone B]",> 123
4,"CCCCCCCCCCCC1=C(O)C(=O)C=C(OC)C1=O [Compound 11, 2-hydroxy-5-methoxy-3-undecyl-1,4-benzoquinone]",38.9 ± 2.35

# Tested on: MCF-7 breast adenocarcinoma cells
# Test: Neutral red (NR) uptake cytotoxicity assay, MCF-7
# Type: cell-based, human
# Conditions: Homo sapiens, MCF7, 72 h, neutral red assay, 72 h incubation; read-out: IC50 MCF-7
# Source text: as §1
# as §2, with “lysosomes. The procedure is cheaper and more sensitive than other cytotoxicity tests.” for “lysosomes.”
row,SMILES,IC50 [µM]
1,"CCCC1=C(O)C(=O)C=C(O)C1=O [Compound 6, 2,5-dihydroxy-3-propyl-2,5-cyclohexadiene-1,4-dione]",162 ± 11.4
2,"CCCCCCCC1=C(O)C(=O)C=C(O)C1=O [Compound 8, 2,5-dihydroxy-3-heptyl-2,5-cyclohexadiene-1,4-dione]",38.8 ± 3.33
3,"COC1=CC(=O)C(O)=C(CCCCCCCC=CCCCCCCCC2=C(O)C(=O)C(C)=C(O)C2=O)C1=O [Compound 14, ardisiaquinone B]",> 123
4,"CCCCCCCCCCCC1=C(O)C(=O)C=C(OC)C1=O [Compound 11, 2-hydroxy-5-methoxy-3-undecyl-1,4-benzoquinone]",22.6

# Same assay, conditions: IC50 in CRL2120 normal fibroblasts divided by IC50 in MCF-7
row,SMILES,selectivity index MCF-7
1,"CCCCCCCC1=C(O)C(=O)C=C(O)C1=O [Compound 8, 2,5-dihydroxy-3-heptyl-2,5-cyclohexadiene-1,4-dione]",3.16
2,"CCCCCCCCCCCC1=C(O)C(=O)C=C(OC)C1=O [Compound 11, 2-hydroxy-5-methoxy-3-undecyl-1,4-benzoquinone]",1.96

# Same assay, conditions: neutral red assay, 72 h incubation; read-out: IC50 MCF-7
row,SMILES,IC50 [µM]
1,"CCCCCCCCCCCC1=C(O)C(=O)C=C(OC)C1=O [Compound 11, 2-hydroxy-5-methoxy-3-undecyl-1,4-benzoquinone]",22.6 ± 1.57

# Tested on: HepG2 hepatocarcinoma cells
# Test: Neutral red (NR) uptake cytotoxicity assay, HepG2
# Type: cell-based, human
# Conditions: Homo sapiens, HepG2; neutral red assay, 72 h incubation; read-out: IC50 HepG2
# Source text: as §1
# as §2, with “lysosomes. The procedure is cheaper and more sensitive than other cytotoxicity tests.” for “lysosomes.”
row,SMILES,IC50 [µM]
1,"CCCC1=C(O)C(=O)C=C(O)C1=O [Compound 6, 2,5-dihydroxy-3-propyl-2,5-cyclohexadiene-1,4-dione]",> 222
2,"CCCCCCCC1=C(O)C(=O)C=C(O)C1=O [Compound 8, 2,5-dihydroxy-3-heptyl-2,5-cyclohexadiene-1,4-dione]",94.2 ± 2.7
3,"COC1=CC(=O)C(O)=C(CCCCCCCC=CCCCCCCCC2=C(O)C(=O)C(C)=C(O)C2=O)C1=O [Compound 14, ardisiaquinone B]",115 ± 4.29
4,"CCCCCCCCCCCC1=C(O)C(=O)C=C(OC)C1=O [Compound 11, 2-hydroxy-5-methoxy-3-undecyl-1,4-benzoquinone]",61.3 ± 5.53

# Same assay, conditions: IC50 in CRL2120 normal fibroblasts divided by IC50 in HepG2
row,SMILES,selectivity index HepG2
1,"CCCCCCCC1=C(O)C(=O)C=C(O)C1=O [Compound 8, 2,5-dihydroxy-3-heptyl-2,5-cyclohexadiene-1,4-dione]",1.16
2,"COC1=CC(=O)C(O)=C(CCCCCCCC=CCCCCCCCC2=C(O)C(=O)C(C)=C(O)C2=O)C1=O [Compound 14, ardisiaquinone B]",0.62
3,"CCCCCCCCCCCC1=C(O)C(=O)C=C(OC)C1=O [Compound 11, 2-hydroxy-5-methoxy-3-undecyl-1,4-benzoquinone]",0.72

# Tested on: normal CRL2120 human skin fibroblasts
# Test: Neutral red (NR) uptake cytotoxicity assay, normal CRL2120 fibroblasts
# Type: cell-based
# Conditions: Skin fibroblast, 72 h incubation
# Source text: as §1
# as §2, with “lysosomes. The procedure is cheaper and more sensitive than other cytotoxicity tests.” for “lysosomes.”
row,SMILES,IC50 [µM]
1,"CCCC1=C(O)C(=O)C=C(O)C1=O [Compound 6, 2,5-dihydroxy-3-propyl-2,5-cyclohexadiene-1,4-dione]",> 222
2,"CCCCCCCC1=C(O)C(=O)C=C(O)C1=O [Compound 8, 2,5-dihydroxy-3-heptyl-2,5-cyclohexadiene-1,4-dione]",117 ± 1.22
3,"COC1=CC(=O)C(O)=C(CCCCCCCC=CCCCCCCCC2=C(O)C(=O)C(C)=C(O)C2=O)C1=O [Compound 14, ardisiaquinone B]",71.3 ± 5.23
4,"CCCCCCCCCCCC1=C(O)C(=O)C=C(OC)C1=O [Compound 11, 2-hydroxy-5-methoxy-3-undecyl-1,4-benzoquinone]",44.2 ± 0.2

# Tested on: six tested cancer cell lines (A549, SPC212, DLD-1, Caco-2, MCF-7, HepG2)
# Test: Neutral red uptake assay, statements over the six tested cancer cell lines
# Type: cell-based, human
# Conditions: Homo sapiens, bound valid for all six cancer cell lines; neutral red assay
# Source text: as §1
# as §2, with “lysosomes. The procedure is cheaper and more sensitive than other cytotoxicity tests.” for “lysosomes.”
row,SMILES,IC50 [µM]
1,"CCCCCCCCCCCC1=C(O)C(=O)C=C(OC)C1=O [Compound 11, 2-hydroxy-5-methoxy-3-undecyl-1,4-benzoquinone]",< 100

# Same assay, conditions: out of six cancer cell lines
row,SMILES,tested cancer cell lines in which recordable IC50 values were obtained
1,"CCCC1=C(O)C(=O)C=C(O)C1=O [Compound 6, 2,5-dihydroxy-3-propyl-2,5-cyclohexadiene-1,4-dione]",1/6
2,"CCCCCCCC1=C(O)C(=O)C=C(O)C1=O [Compound 8, 2,5-dihydroxy-3-heptyl-2,5-cyclohexadiene-1,4-dione]",5/6
3,"COC1=CC(=O)C(O)=C(CCCCCCCC=CCCCCCCCC2=C(O)C(=O)C(C)=C(O)C2=O)C1=O [Compound 14, ardisiaquinone B]",4/6
